In BindingDB's records for doi:10.1016/0014-2999(89)90802-9 (Virginia Commonwealth University, 1989):

Columns and labels:
[1] = molecular target: T1, 5-hydroxytryptamine receptor 3A (Rattus norvegicus, UniProt P35563)
T1 sequence (P35563 whole entry): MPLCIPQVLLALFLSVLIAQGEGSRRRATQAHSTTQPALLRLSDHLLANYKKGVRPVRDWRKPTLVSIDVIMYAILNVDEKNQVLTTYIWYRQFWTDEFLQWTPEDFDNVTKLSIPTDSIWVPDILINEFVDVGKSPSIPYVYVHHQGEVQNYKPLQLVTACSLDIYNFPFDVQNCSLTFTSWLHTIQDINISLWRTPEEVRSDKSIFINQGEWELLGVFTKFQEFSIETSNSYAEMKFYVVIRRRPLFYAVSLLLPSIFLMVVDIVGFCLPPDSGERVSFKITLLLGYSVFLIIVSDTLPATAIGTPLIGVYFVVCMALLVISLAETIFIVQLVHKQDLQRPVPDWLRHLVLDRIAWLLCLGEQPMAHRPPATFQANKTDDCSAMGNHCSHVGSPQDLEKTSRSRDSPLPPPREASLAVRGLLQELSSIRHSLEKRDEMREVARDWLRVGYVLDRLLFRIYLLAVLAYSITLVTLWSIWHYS

[2] = molecular target: T2, Solute carrier family 22 member 2 (Rattus norvegicus, UniProt Q9R0W2)
T2 sequence (Q9R0W2 whole entry): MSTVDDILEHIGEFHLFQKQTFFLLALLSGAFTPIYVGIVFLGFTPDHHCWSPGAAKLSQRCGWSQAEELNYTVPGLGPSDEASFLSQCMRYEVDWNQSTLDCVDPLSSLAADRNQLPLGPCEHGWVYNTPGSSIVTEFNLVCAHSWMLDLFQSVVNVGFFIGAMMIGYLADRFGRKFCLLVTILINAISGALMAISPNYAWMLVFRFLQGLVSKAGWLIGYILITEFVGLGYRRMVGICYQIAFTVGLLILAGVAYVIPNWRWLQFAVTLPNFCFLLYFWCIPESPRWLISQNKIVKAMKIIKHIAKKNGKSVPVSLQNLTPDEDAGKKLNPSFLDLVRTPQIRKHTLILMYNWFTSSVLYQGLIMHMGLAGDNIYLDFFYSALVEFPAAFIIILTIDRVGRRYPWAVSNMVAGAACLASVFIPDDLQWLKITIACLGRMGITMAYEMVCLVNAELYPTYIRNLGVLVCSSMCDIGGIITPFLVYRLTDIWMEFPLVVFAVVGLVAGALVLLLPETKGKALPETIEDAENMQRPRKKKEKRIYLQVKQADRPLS

[3] = molecular target: Beta-2 adrenergic receptor (Rattus norvegicus, UniProt P10608)
[4] = molecular target: T3, Solute carrier family 22 member 1 (Rattus norvegicus, UniProt Q63089)
T3 sequence (Q63089 whole entry): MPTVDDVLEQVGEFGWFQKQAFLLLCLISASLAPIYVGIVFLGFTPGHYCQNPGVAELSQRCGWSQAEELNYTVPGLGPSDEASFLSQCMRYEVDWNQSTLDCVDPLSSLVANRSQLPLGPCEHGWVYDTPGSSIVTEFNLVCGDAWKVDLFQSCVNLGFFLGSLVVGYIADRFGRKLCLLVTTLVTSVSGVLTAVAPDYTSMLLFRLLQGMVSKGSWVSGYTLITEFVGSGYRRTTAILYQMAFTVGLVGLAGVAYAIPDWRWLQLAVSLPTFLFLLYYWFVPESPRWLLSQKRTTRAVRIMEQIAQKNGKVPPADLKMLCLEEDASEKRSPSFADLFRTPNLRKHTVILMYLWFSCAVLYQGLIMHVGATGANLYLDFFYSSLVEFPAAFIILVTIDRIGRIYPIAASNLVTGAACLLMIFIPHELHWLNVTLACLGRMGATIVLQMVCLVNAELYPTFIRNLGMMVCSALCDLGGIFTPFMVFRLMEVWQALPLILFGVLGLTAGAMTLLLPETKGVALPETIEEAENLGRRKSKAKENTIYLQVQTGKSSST

[5] = molecular target: 5-hydroxytryptamine receptor 1B (Rattus norvegicus, UniProt P28564)
[6] = molecular target: T4, Muscarinic acetylcholine receptor M2 (Rattus norvegicus, UniProt P10980)
T4 sequence (P10980 whole entry): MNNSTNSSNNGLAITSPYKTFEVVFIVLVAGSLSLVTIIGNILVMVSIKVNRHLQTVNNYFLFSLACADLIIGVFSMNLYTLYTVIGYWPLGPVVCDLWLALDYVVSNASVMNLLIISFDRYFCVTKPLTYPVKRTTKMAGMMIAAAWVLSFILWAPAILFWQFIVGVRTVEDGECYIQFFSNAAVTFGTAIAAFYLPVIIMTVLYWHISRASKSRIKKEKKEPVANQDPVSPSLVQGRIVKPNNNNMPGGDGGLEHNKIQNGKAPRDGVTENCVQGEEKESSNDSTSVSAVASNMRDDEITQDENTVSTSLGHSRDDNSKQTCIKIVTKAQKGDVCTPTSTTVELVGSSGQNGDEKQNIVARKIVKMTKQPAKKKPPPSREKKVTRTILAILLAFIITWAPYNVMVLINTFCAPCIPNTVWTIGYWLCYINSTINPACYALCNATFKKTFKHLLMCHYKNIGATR

[7] = molecular target: 5-hydroxytryptamine receptor 2A (Rattus norvegicus, UniProt P14842)
[8] = molecular target: Gamma-aminobutyric acid receptor subunit alpha-1 (Rattus norvegicus, UniProt P62813)
[9] = molecular target: T5, 5-hydroxytryptamine receptor 1A (Rattus norvegicus, UniProt P19327)
T5 sequence (P19327 whole entry): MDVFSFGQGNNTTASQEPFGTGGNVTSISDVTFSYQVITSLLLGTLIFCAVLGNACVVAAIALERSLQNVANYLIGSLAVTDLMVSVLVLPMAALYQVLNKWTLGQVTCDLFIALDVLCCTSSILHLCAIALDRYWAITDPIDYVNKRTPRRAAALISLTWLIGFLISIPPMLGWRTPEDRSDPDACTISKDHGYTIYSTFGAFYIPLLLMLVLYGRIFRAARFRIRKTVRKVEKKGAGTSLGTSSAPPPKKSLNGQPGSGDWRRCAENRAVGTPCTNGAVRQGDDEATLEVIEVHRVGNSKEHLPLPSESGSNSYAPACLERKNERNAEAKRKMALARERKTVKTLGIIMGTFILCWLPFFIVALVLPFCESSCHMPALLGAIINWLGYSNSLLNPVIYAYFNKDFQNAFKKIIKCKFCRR

[10] = molecular target: T6, Alpha-1A adrenergic receptor (Rattus norvegicus, UniProt P43140)
T6 sequence (P43140 whole entry): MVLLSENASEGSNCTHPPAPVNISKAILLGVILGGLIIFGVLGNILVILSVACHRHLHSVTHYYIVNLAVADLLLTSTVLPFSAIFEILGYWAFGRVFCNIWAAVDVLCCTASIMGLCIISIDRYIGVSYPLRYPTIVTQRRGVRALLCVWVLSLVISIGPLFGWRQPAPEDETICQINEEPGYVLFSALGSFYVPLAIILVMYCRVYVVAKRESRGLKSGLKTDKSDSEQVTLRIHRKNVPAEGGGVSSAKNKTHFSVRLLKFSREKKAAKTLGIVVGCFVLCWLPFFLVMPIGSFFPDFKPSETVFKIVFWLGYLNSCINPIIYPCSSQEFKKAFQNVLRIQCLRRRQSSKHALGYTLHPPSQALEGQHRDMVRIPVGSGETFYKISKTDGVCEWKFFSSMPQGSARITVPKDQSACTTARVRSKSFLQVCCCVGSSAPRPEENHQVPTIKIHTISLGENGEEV

[11] = molecular target: T7, Alpha-2C adrenergic receptor (Rattus norvegicus, UniProt P22086)
T7 sequence (P22086 whole entry): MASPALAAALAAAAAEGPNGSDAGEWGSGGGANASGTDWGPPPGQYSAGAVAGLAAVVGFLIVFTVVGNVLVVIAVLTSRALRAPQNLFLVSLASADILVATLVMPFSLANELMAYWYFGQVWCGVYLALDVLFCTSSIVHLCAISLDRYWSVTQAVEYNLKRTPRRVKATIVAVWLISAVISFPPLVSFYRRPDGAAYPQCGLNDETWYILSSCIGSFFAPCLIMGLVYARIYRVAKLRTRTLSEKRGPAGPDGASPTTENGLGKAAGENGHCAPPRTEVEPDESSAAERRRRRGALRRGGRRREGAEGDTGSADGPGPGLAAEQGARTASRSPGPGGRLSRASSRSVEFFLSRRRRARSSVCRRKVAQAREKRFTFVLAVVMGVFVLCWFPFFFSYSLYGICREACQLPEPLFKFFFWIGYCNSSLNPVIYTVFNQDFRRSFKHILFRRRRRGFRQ

5-hydroxytryptamine receptor 1B, sequence (P28564 whole entry): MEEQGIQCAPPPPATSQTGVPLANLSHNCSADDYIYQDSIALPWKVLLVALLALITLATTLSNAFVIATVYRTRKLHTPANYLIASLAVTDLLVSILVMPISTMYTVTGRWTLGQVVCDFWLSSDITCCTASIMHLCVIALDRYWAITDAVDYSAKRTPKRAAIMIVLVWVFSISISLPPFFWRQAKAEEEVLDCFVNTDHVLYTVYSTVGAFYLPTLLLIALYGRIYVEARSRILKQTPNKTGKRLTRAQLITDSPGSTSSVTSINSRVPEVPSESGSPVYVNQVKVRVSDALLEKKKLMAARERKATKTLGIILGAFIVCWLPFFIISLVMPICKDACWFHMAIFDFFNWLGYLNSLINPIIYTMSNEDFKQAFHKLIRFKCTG
Beta-2 adrenergic receptor, sequence (P10608 whole entry): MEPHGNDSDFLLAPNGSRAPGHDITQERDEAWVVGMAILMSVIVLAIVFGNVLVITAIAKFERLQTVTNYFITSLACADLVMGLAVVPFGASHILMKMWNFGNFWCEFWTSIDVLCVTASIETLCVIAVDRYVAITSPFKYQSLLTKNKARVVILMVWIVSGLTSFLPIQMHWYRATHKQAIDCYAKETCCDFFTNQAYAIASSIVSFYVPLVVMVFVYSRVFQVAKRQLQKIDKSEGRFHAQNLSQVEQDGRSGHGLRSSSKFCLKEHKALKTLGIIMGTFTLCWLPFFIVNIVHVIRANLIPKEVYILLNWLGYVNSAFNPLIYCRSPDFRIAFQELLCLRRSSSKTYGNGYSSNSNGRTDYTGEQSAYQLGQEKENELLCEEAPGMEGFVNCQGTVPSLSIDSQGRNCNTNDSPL
5-hydroxytryptamine receptor 2A, sequence (P14842 whole entry): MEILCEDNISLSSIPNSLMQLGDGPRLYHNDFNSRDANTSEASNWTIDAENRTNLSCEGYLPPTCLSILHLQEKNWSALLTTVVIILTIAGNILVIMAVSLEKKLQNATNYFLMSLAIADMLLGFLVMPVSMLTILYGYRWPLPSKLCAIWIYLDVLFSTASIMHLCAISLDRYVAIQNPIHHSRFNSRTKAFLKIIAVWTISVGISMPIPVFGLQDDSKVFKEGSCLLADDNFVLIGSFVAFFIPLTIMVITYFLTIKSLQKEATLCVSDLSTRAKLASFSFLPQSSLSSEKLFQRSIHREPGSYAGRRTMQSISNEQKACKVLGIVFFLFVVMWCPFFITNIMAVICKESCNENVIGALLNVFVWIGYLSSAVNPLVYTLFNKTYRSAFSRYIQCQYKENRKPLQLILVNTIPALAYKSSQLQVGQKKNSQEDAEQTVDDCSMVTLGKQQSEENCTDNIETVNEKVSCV
Gamma-aminobutyric acid receptor subunit alpha-1, sequence (P62813 whole entry): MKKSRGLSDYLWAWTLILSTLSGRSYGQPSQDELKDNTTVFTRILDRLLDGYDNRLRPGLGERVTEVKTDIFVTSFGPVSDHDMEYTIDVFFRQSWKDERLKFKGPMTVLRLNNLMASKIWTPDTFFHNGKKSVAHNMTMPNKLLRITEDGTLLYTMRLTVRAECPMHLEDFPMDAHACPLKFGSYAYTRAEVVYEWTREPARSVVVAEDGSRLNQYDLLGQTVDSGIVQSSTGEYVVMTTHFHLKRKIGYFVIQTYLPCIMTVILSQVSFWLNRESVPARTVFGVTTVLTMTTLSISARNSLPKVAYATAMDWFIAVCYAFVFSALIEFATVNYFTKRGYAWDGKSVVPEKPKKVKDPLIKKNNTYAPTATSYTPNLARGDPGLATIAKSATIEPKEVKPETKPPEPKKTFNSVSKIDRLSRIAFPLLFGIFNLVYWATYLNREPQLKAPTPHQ

## COc1ccccc1N1CCNCC1
[1]
  Ki: 324 nM

## Clc1ccc(N2CCNCC2)cc1
[1]
  Ki: 120 nM

## c1ccc(N2CCNCC2)cc1
[1]
  Ki: 430 nM

## c1ccc2c(N3CCNCC3)cccc2c1
[1]
  Ki: 110 nM

## c1ccc(C2CCNCC2)cc1
[1]
  Ki: 440 nM

## COc1cccc2ccc(N3CCNCC3)nc12
[1]
  Ki: 360 nM

## CCCN(CCC)c1ccc2ccccc2n1
[1]
  Ki: 1000 nM

## c1ccc2nc(N3CCCCC3)ccc2c1
[1]
  Ki: 1000 nM

## c1cnc(N2CCNCC2)nc1 [1-PP]
[1]
  Ki: 4000 nM

## c1ccc2nc(N3CCNCC3)ccc2c1 [2-Piperazin-1-yl-quinoline (Quipazine)]
[2]
  Ki: 5000 nM
[3]
  Ki: 2900 nM
[1]
  Ki: 1.5 nM
[4]
  Ki: > 10000 nM
[5]
  Ki: 200 nM
[6]
  Ki: > 10000 nM
[7]
  Ki: 180 nM

## COc1ccc(N2CCNCC2)cc1 [4-METHOXYPHENYLPIPERAZINE]
[1]
  Ki: 340 nM

## COc1cccc2ccc(N3CCN(C)CC3)nc12 [8-Methoxy-N-methylquipazine]
[1]
  Ki: 440 nM

## Clc1cncc(N2CCNCC2)n1 [L-630,571]
[1]
  Ki: 29 nM

## CCCN1CCN(c2ccc3ccccc3n2)CC1 [N-Propylquipazine]
[1]
  Ki: 15 nM

## CN(C)C[C@@H]1C2CCC(CC2)[C@@H]1c1ccc(Cl)c(Cl)c1 [NSC_398]
[1]
  Ki: 30 nM

## CN1CCN(c2nc3ccccc3c(=O)[nH]2)CC1 [NSC_63211]
[1]
  Ki: 270 nM

## Cc1cccc2ccc(N3CCNCC3)nc12 [QUIPAZINE,8-Me]
[3]
  Ki: > 10000 nM
[1]
  Ki: 4.7 nM
[5]
  Ki: > 10000 nM
[8]
  Ki: > 10000 nM
[9]
  Ki: 1700 nM
[6]
  Ki: > 10000 nM
[10]
  Ki: > 10000 nM
[7]
  Ki: 550 nM
[11]
  Ki: 3800 nM

## Clc1cccc(N2CCNCC2)c1 [mCPP]
[1]
  Ki: 20 nM
